In brackets after ≈: the same amount, converted by molar mass. *1 amine or outer side, *2 acyl side, *3 side chain or, on linkers, in order; H or OH if unused. Where a SMILES comes first, the peptide text is derived from it. [ ]: non-standard residue; d: D form. The star is where a group is joined. X13 = C[C@H](CO[C@H](CC1CC2(CCC2)C1)[C@@H](C)C(=O)[*:2])N[*:1]; Chg = N[C@H](C(=O)O)C1CCCCC1; NMeNva = CCC[C@H](NC)C(=O)O; Dap = NC[C@H](N)C(=O)O; Propyl(3-NH2) = NCCC*

The MIC is the lowest concentration found to suppress growth. High values mean a need for much substance, low ones inhibition by little substance.

For this assay, the system named is Escherichia coli (E. coli) strain CFT073 ATCC 700928. The class given is cell-based. The conditions noted are these: ATCC 700928, 22 h. The procedure, abridged:
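MICs were read after 22 h at 35 °C, with bacteria added to a final OD600 of 0.0005. Compounds were serially diluted 2-fold over ten concentrations from a top of 64, 4, 0.5 or 0.13 μg/mL (protocols 1–4). Medium was cation-adjusted Mueller Hinton II broth plus 0.002% Tween-80, following CLSI M07-A8.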
Compound `CCCCCC[C@@H]1OC(=O)CNC(=O)[C@H](CNC(=O)C2CCNCC2)NC(=O)[C@H](CN)NC(=O)[C@H](C2CCCCC2)NC(=O)[C@H](CC(C)C)N(C)C(=O)[C@@H]1C` (stereo in doubt) [Example 155] yielded an MIC of 18 µM (≈ 14 µg/mL). Consider `CCC[C@H]1C(=O)N[C@@H](C2CCCCCC2)C(=O)N[C@@H](CN)C(=O)N[C@@H]([C@H](C)O)C(=O)NCC(=O)O[C@H](CC2CC3CCC2C3)[C@@H](C)C(=O)N1C` (stereo partly drawn) [Example 134, (6S,9S,12S,15S,18R,19R)-9-(aminomethyl)-12-cycloheptyl-16,18-dimethyl-19-(norbornan-2-ylmethyl)-15-propyl-6-[(1S)-1-hydroxyethyl]-1-oxa-4,7,10,13,16-pentazacyclononadecane-2,5,8,11,14,17-hexone], for which the MIC worked out at 0.78 µM (≈ 0.55 µg/mL). `CCCCCC[C@H]1OC(=O)CNC(=O)[C@H](CNC(N)=O)NC(=O)[C@H](CN)NC(=O)[C@H](C2CCCCC2)NC(=O)[C@H](CC(C)C)N(C)C(=O)[C@@H]1C` [Example 116, [(6S,9S,12S,15S,18R,19R)-9-(aminomethyl)-12-cyclohexyl-19-hexyl-15-isobutyl-16,18-dimethyl-2,5,8,11,14,17-hexaoxo-1-oxa-4,7,10,13,16-pentazacyclononadec-6-yl]methylurea] showed an MIC of 50 µM (≈ 35.4 µg/mL). Then `CCCCCCCCCC[C@H]1OC(=O)CNC(=O)[C@H]([C@H](C)O)NC(=O)[C@H](CN)NC(=O)[C@H](CCCCOC)NC(=O)[C@H](CC(C)C)N(C)C(=O)[C@@H]1C` [Example 50, (6S,9S,12S,15S,18R,19R)-9-(aminomethyl)-19-decyl-6-[(1S)-1-hydroxyethyl]-15-isobutyl-12-(4-methoxybutyl)-16,18-dimethyl-1-oxa-4,7,10,13,16-pentazacyclononadecane-2,5,8,11,14,17-hexone], with 25 µM (≈ 18.5 µg/mL). Consider `CCCCCCCCCC[C@H]1OC(=O)CNC(=O)[C@H]([C@H](C)O)NC(=O)[C@H](CN)NC(=O)[C@H]([C@H](C)CC)NC(=O)[C@H](CCC)N(C)C(=O)[C@@H]1C` [Example 14, (6S,9S,12S,15S,18R,19R)-9-(aminomethyl)-19-decyl-6-[(1S)-1-hydroxyethyl]-16,18-dimethyl-12-[(1R)-1-methylpropyl]-15-propyl-1-oxa-4,7,10,13,16-pentazacyclononadecane-2,5,8,11,14,17-hexone], for which the MIC came out at 3.1 µM (≈ 2.16 µg/mL).

`CCCCCCCCCC[C@H]1OC(=O)CNC(=O)[C@H](COCCCN)NC(=O)[C@H](CO)NC(=O)[C@H]([C@@H](C)CC)NC(=O)[C@H](CC(C)C)N(C)C(=O)[C@@H]1C` [Example 95, (6S,9S,12S,15S,18R,19R)-6-(3-aminopropoxymethyl)-19-decyl-9-(hydroxymethyl)-15-isobutyl-16,18-dimethyl-12-[(1S)-1-methylpropyl]-1-oxa-4,7,10,13,16-pentazacyclononadecane-2,5,8,11,14,17-hexone] returned an MIC of 14 µM (≈ 10.6 µg/mL). This MIC lies about 4.5-fold higher than the previous one. For the compound `CCC[C@H]1C(=O)N[C@@H](C2CCCCC2)C(=O)N[C@@H](CN)C(=O)N[C@@H](COCCCN)C(=O)N[C@H](C)CO[C@H](CC2CC3(CCC3)C2)[C@@H](C)C(=O)N1C` [Example 157, (3R,6S,9S,12S,15S,18R,19R)-9-(Aminomethyl)-6-((3-aminopropoxy)methyl)-12-cyclohexyl-3,16,18-trimethyl-15-propyl-19-(spiro[3.3]heptan-2-ylmethyl)-1-oxa-4,7,10,13,16-pentaazacyclononadecane-5,8,11,14,17-pentaone] (cyclo([Chg][Dap]S(Propyl(3-NH2))[X13][NMeNva])), the MIC worked out at 12 µM (≈ 8.81 µg/mL).

For `CC[C@@H](C)[C@@H]1NC(=O)[C@H](CC(C)C)N(C)C(=O)[C@H](C)[C@@H](CCCCCC(F)(F)F)OC(=O)CNC(=O)[C@H]([C@H](C)O)NC(=O)[C@H](CN)NC1=O` [Example 107, (6S,9S,12S,15S,18R,19R)-9-(aminomethyl)-15-isobutyl-16,18-dimethyl-6-[(1S)-1-hydroxyethyl]-12-[(1R)-1-methylpropyl]-19-(6,6,6-trifluorohexyl)-1-oxa-4,7,10,13,16-pentazacyclononadecane-2,5,8,11,14,17-hexone], the MIC worked out at 25 µM (≈ 17.7 µg/mL). This MIC lies about 2.1-fold higher than the previous one. As to `CC[C@@H](C)[C@@H]1NC(=O)[C@H](CC(C)C)N(C)C(=O)[C@H](C)[C@@H](CCCCc2ccccc2)OC(=O)CNC(=O)[C@H]([C@H](C)O)NC(=O)[C@H](CN)NC1=O` [Example 89, (6S,9S,12S,15S,18R,19R)-9-(aminomethyl)-15-isobutyl-16,18-dimethyl-19-(4-phenylbutyl)-6-[(1S)-1-hydroxyethyl]-12-[(1R)-1-methylpropyl]-1-oxa-4,7,10,13,16-pentazacyclononadecane-2,5,8,11,14,17-hexone], the MIC was found to be 12 µM (≈ 8.43 µg/mL). `CCCCCCCCCC[C@H]1OC(=O)CNC(=O)[C@H](CO)NC(=O)[C@H](CO)NC(=O)[C@H]([C@@H](C)CC)NC(=O)[C@H](CCC)N(C)C(=O)[C@@H]1C` [Example 36, (6S,9S,12S,15S,18R,19R)-19-decyl-6,9-bis(hydroxymethyl)-16,18-dimethyl-12-[(1S)-1-methylpropyl]-15-propyl-1-oxa-4,7,10,13,16-pentazacyclononadecane-2,5,8,11,14,17-hexone] came in with a minimal inhibitory concentration (MIC) of 25 µM (≈ 17.1 µg/mL). Take `CCCCCC(C)[C@H]1OC(=O)CNC(=O)[C@H]([C@H](C)O)NC(=O)[C@H](CN)NC(=O)[C@H](C2CCCCC2)NC(=O)[C@H](CC(C)C)N(C)C(=O)[C@@H]1C` (stereo partly drawn) [Example 126, (6S,9S,12S,15S,18R,19R)-9-(aminomethyl)-12-cyclohexyl-15-isobutyl-16,18-dimethyl-19-(1-methylhexyl)-6-[(1S)-1-hydroxyethyl]-1-oxa-4,7,10,13,16-pentazacyclononadecane-2,5,8,11,14,17-hexone]: the MIC amounted to 3.1 µM (≈ 2.15 µg/mL). The compound `CCCCCC[C@H]1OC(=O)CNC(=O)[C@H]([C@H](C)O)NC(=O)[C@H](CN)NC(=O)[C@H](C2CC3(CCC3)C2)NC(=O)[C@H](CC(C)C)N(C)C(=O)[C@@H]1C` [Example 55, (6S,9S,12S,15S,18R,19R)-9-(aminomethyl)-19-hexyl-6-((S)-1-hydroxyethyl)-15-isobutyl-16,18-dimethyl-12-(spiro[3.3]heptan-2-yl)-1-oxa-4,7,10,13,16-pentaazacyclononadecane-2,5,8,11,14,17-hexaone] displayed an MIC of 18 µM (≈ 12.5 µg/mL). Then `CCCCCCCCCC[C@H]1OC(=O)CNC(=O)[C@H](Cc2c[nH]cn2)NC(=O)[C@H](CO)NC(=O)[C@H]([C@@H](C)CC)NC(=O)[C@H](CC(C)C)N(C)C(=O)[C@@H]1C` [Example 29, (6S,9S,12S,15S,18R,19R)-19-decyl-9-(hydroxymethyl)-6-(1H-imidazol-4-ylmethyl)-15-isobutyl-16,18-dimethyl-12-[(1S)-1-methylpropyl]-1-oxa-4,7,10,13,16-pentazacyclononadecane-2,5,8,11,14,17-hexone], with 13 µM (≈ 9.72 µg/mL); and `CCCCCCCCCC[C@H]1OC(=O)CNC(=O)[C@H](COCCO)NC(=O)[C@H](CO)NC(=O)[C@H]([C@@H](C)CC)NC(=O)[C@H](CC(C)C)N(C)C(=O)[C@@H]1C` [Example 48, (6S,9S,12S,15S,18R,19R)-19-decyl-6-(2-hydroxyethoxymethyl)-9-(hydroxymethyl)-15-isobutyl-16,18-dimethyl-12-[(1S)-1-methylpropyl]-1-oxa-4,7,10,13,16-pentazacyclononadecane-2,5,8,11,14,17-hexone], with 50 µM (≈ 37.1 µg/mL); and `CCCCCCCCCC[C@H]1OC(=O)CNC(=O)[C@H](C)NC(=O)[C@H](CO)NC(=O)[C@H]([C@@H](C)CC)NC(=O)[C@H](CC(C)C)N(C)C(=O)[C@@H]1C` [Example 30, (6S,9S,12S,15S,18R,19R)-19-decyl-9-(hydroxymethyl)-15-isobutyl-6,16,18-trimethyl-12-[(1S)-1-methylpropyl]-1-oxa-4,7,10,13,16-pentazacyclononadecane-2,5,8,11,14,17-hexone], with 13 µM (≈ 8.86 µg/mL).

For `CC(C)C[C@H]1C(=O)N[C@@H](C2CCCCC2)C(=O)N[C@@H](CN)C(=O)N[C@@H]([C@H](C)O)C(=O)NCC(=O)O[C@H](CCCCCCC(C)(C)O)[C@@H](C)C(=O)N1C` [Example 114, (6S,9S,12S,15S,18R,19R)-9-(aminomethyl)-12-cyclohexyl-19-(7-hydroxy-7-methyl-octyl)-15-isobutyl-16,18-dimethyl-6-[(1S)-1-hydroxyethyl]-1-oxa-4,7,10,13,16-pentazacyclononadecane-2,5,8,11,14,17-hexone], the MIC was found to be 15 µM (≈ 11.1 µg/mL). Regarding `CCCCCC[C@H]1OC(=O)CNC(=O)[C@H](CNC(=O)CCN)NC(=O)[C@H](CN)NC(=O)[C@H](C2CCCCC2)NC(=O)[C@H](CC(C)C)N(C)C(=O)[C@@H]1C` [Example 145, 3-amino-N-[[(6S,9S,12S,15S,18R,19R)-9-(aminomethyl)-12-cyclohexyl-19-hexyl-15-isobutyl-16,18-dimethyl-2,5,8,11,14,17-hexaoxo-1-oxa-4,7,10,13,16-pentazacyclononadec-6-yl]methyl]propanamide], the MIC is 12 µM (≈ 8.84 µg/mL). This MIC and that of the compound before are within 1.5-fold of each other. On to `CC(C)C[C@H]1C(=O)N[C@@H](C2CCCCC2)C(=O)N[C@@H](CN)C(=O)N[C@@H](COCCCN)C(=O)NCC(=O)O[C@H](CCCCC(C)(C)C)[C@@H](C)C(=O)N1C` [Example 75, (6S,9S,12S,15S,18R,19R)-9-(Aminomethyl)-6-((3-aminopropoxy)methyl)-12-cyclohexyl-19-(5,5-dimethylhexyl)-15-isobutyl-16,18-dimethyl-1-oxa-4,7,10,13,16-pentaazacyclononadecane-2,5,8,11,14,17-hexaone], for which the MIC was 3.1 µM (≈ 2.33 µg/mL). Compared with the last compound, the MIC is about 3.9-fold lower. `CC[C@H](C)[C@@H]1NC(=O)[C@H](CC(C)C)N(C)C(=O)[C@H](C)[C@@H](CCCCC(C)(C)C)OC(=O)CNC(=O)[C@H]([C@H](C)O)NC(=O)[C@H](CO)NC1=O` [Example 44, (6S,9S,12S,15S,18R,19R)-19-(5,5-dimethylhexyl)-6-[(1S)-1-hydroxyethyl]-9-(hydroxymethyl)-15-isobutyl-16,18-dimethyl-12-[(1S)-1-methylpropyl]-1-oxa-4,7,10,13,16-pentazacyclononadecane-2,5,8,11,14,17-hexone] gave an MIC of 25 µM (≈ 17.1 µg/mL).

For the origin of these results see patent US11279735B2, “Cyclic peptide antibiotics” (priority 2017, dated 2022).
